Values of other authors in patent US7488493B2, “Performance aid for pesticide or repellent compositions” (Arkion Life Sciences, LLC, priority 2003, dated 2009).

System: birds

O=C1c2ccccc2C(=O)c2ccccc21 [9,10-anthraquinone]
Lower limit of detection in birds (threshold where birds begin to sense the repellency) (in vivo): 125 ppm | Content in seed at which birds will not feed (treated seed): 0.1 % by weight
